Active and inactive are the calls of the source. How the calls were made is not given here.

This series concerns rodent carcinogenicity bioassays, tumor incidence. The experiment in a line: CCRIS carcinogenicity studies. The essentials:
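Archive of carcinogenicity, mutagenicity, tumor promotion and tumor inhibition results drawn from journals, NCI reports and other sources, expert-reviewed; covers 1985-2011 and is no longer updated.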

Regarding `CCc1cc2ccccc2c2ccc3c(c12)[C@@H]1O[C@@H]1[C@H](O)[C@H]3O`, the carcinogen call is, setting by setting: (Species: MOUSE, Strain/Sex: ICR/FEMALE, Route: INTRAPERITONEAL, Dose: 0, 8 NMOL IN 5 µL DMSO ON D 1, 16 NMOL IN 10 µL ON D 8 AND 32 NMOL IN 20 µL ON D 15 OF LIFE (STUDY DURATION: 35 WK)) “inactive; negative”; (Species: MOUSE, Strain/Sex: ICR/MALE, Route: INTRAPERITONEAL, Dose: 0, 8 NMOL IN 5 µL DMSO ON D 1, 16 NMOL IN 10 µL ON D 8 AND 32 NMOL IN 20 µL ON D 15 OF LIFE (STUDY DURATION: 35 WK)) “inactive; negative”.
For `Nc1ccc(O)c([N+](=O)[O-])c1`, the carcinogen call (Species: MOUSE, Strain/Sex: B6C3F1/FEMALE, Route: ORAL, Dose: 0, 1250, 2500 PPM IN DIET FOR 103 WK (STUDY DURATION: 105 WK), Dose: 0, 1250, 2500 PPM IN DIET FOR 103 WK (STUDY DURATION: 105 WK)) was “inactive; negative”; the carcinogen call (Species: MOUSE, Strain/Sex: B6C3F1/MALE, Route: ORAL, Dose: 0, 1250, 2500 PPM IN DIET FOR 103 WK (STUDY DURATION: 105 WK), Dose: 0, 1250, 2500 PPM IN DIET FOR 103 WK (STUDY DURATION: 105 WK)) is “inactive; negative”; the carcinogen call (Species: RAT, Strain/Sex: F344/FEMALE, Route: ORAL, Dose: 0, 1250, 2500 PPM IN DIET FOR 103 WK (STUDY DURATION: 105 WK), Dose: 0, 1250, 2500 PPM IN DIET FOR 103 WK (STUDY DURATION: 105 WK), Tumor Site: Type of Lesion: BLADDER: CARCINOMA) was “equivocal”; the carcinogen call (Species: RAT, Strain/Sex: F344/MALE, Route: ORAL, Dose: 0, 1250, 2500 PPM IN DIET FOR 103 WK (STUDY DURATION: 105 WK), Dose: 0, 1250, 2500 PPM IN DIET FOR 103 WK (STUDY DURATION: 105 WK), Tumor Site: Type of Lesion: URINARY BLADDER: TRANSITIONAL CELL CARCINOMA) was “active; positive”.
For the compound `N=C1C=CC(=C(c2ccc(N)cc2)c2ccc(N)cc2)C=C1`, the carcinogen call is, setting by setting: (Species: MOUSE, Strain/Sex: B6C3F1/FEMALE, Route: ORAL, Dose: 0, 500, 1000 PPM IN DIET FOR 103 WK (STUDY DURATION: 110-113 WK), Dose: 0, 500, 1000 PPM IN DIET FOR 103 WK (STUDY DURATION: 110-113 WK), Tumor Site: Type of Lesion: LUNG: ALVEOLAR/BRONCHIOLAR ADENOMA, ALVEOLAR/BRONCHIOLAR ADENOMA OR CARCINOMA;LIVER: HEPATOCELLULAR ADENOMA, HEPATOCELLU) “active; positive”; (Species: MOUSE, Strain/Sex: B6C3F1/MALE, Route: ORAL, Dose: 0, 500, 1000 PPM IN DIET FOR 103 WK (STUDY DURATION: 113-115 WK), Dose: 0, 500, 1000 PPM IN DIET FOR 103 WK (STUDY DURATION: 113-115 WK), Tumor Site: Type of Lesion: LIVER: HEPATOCELLULAR CARCINOMA, HEPATOCELLULAR ADENOMA OR CARCINOMA) “active; positive”; (Species: RAT, Strain/Sex: F344/FEMALE, Route: ORAL, Dose: 0, 500, 1000 PPM IN DIET FOR 103 WK (STUDY DURATION: 110-113 WK), Dose: 0, 500, 1000 PPM IN DIET FOR 103 WK (STUDY DURATION: 110-113 WK), Tumor Site: Type of Lesion: INTEGUMENTARY SYSTEM (SUBCUTANEOUS TISSUE): FIBROMA, FIBROMA OR FIBROSARCOMA, FIBROMA OR SARCOMA OR FIBROSARCOMA, MAMMAR) “active; positive”; (Species: RAT, Strain/Sex: F344/MALE, Route: ORAL, Dose: 0, 1000, 2000 PPM IN DIET FOR 103 WK (STUDY DURATION: 110-113 WK), Dose: 0, 1000, 2000 PPM IN DIET FOR 103 WK (STUDY DURATION: 110-113 WK), Tumor Site: Type of Lesion: INTEGUMENTARY SYSTEM (SKIN): SQUAMOUS CELL CARCINOMA, SQUAMOUS CELL PAPILLOMA OR CARCINOMA, TRICHOEPITHELIOMA, SEBACEOUS) “active; positive”; (Species: RAT, Strain/Sex: SPRAGUE-DAWLEY/FEMALE, Route: GAVAGE, Dose: 0, 300 MG/KG BW 2/WK FOR 18 WK WITH A 1 WK REST AFTER 12 WK THEN STARTING AT 19 WK 150 MG/KG BW 2/WK FOR DURATION OF STU) “inactive; negative”; (Species: RAT, Strain/Sex: SPRAGUE-DAWLEY/MALE, Route: GAVAGE, Dose: 0, 300 MG/KG BW 2/WK FOR 18 WK WITH A 1 WK REST AFTER 12 WK THEN STARTING AT 19 WK 150 MG/KG BW 2/WK FOR DURATION OF STU) “inactive; negative”.
For the compound `[Cl][Hg][Cl]`, the carcinogen call (Species: MOUSE, Strain/Sex: B6C3F1/FEMALE, Route: GAVAGE, Dose: 0, 5, 10 MG/KG IN DEIONIZED WATER 5 D/WK FOR 103-104 WK (STUDY DURATION: 104 WK), Dose: 0, 5, 10 MG/KG IN DEIONIZED WATER 5 D/WK FOR 103-104 WK (STUDY DURATION: 104 WK)) was “inactive; negative”; the carcinogen call (Species: MOUSE, Strain/Sex: B6C3F1/MALE, Route: GAVAGE, Dose: 0, 5, 10 MG/KG IN DEIONIZED WATER 5 D/WK FOR 103-104 WK (STUDY DURATION: 104 WK), Dose: 0, 5, 10 MG/KG IN DEIONIZED WATER 5 D/WK FOR 103-104 WK (STUDY DURATION: 104 WK), Tumor Site: Type of Lesion: KIDNEY (RENAL TUBLE): ADENOMA, ADENOCARCINOMA) is “equivocal”; the carcinogen call (Species: MOUSE, Strain/Sex: SWISS/FEMALE, Route: ORAL, Dose: 0, 5 PPM (HG) IN DRINKING WATER FOR DURATION OF STUDY (STUDY DURATION: LIFE SPAN)) is “inactive; negative”; the carcinogen call (Species: MOUSE, Strain/Sex: SWISS/MALE, Route: ORAL, Dose: 0, 5 PPM (HG) IN DRINKING WATER FOR DURATION OF STUDY (STUDY DURATION: LIFE SPAN)) is “inactive; negative”; the carcinogen call (Species: RAT, Strain/Sex: F344/FEMALE, Route: GAVAGE, Dose: 0, 2.5, 5 MG/KG IN DEIONIZED WATER 5 D/WK FOR 103-104 WK (STUDY DURATION: 104 WK), Dose: 0, 2.5, 5 MG/KG IN DEIONIZED WATER 5 D/WK FOR 103-104 WK (STUDY DURATION: 104 WK), Tumor Site: Type of Lesion: FORESTOMACH: SQUAMOUS CELL PAPILLOMA) is listed as “equivocal”; the carcinogen call (Species: RAT, Strain/Sex: F344/MALE, Route: GAVAGE, Dose: 0, 2.5, 5 MG/KG IN DEIONIZED WATER 5 D/WK FOR 103-104 WK (STUDY DURATION: 104 WK), Dose: 0, 2.5, 5 MG/KG IN DEIONIZED WATER 5 D/WK FOR 103-104 WK (STUDY DURATION: 104 WK), Tumor Site: Type of Lesion: THYROID GLAND: FOLLICULAR CELL CARCINOMA, FOLLICULAR CELL CARCINOMA OR ADENOMA, FORESTOMACH: SQUAMOUS CELL PAPILLOMA) was “active; positive”.
Take `NC(=S)NNC(N)=S`: the carcinogen call reads like this: (Species: MOUSE, Strain/Sex: B6C3F1/FEMALE, Route: ORAL, Dose: 0, 1.0, 2.0% OF DIET FOR 78 WK (STUDY DURATION: 94 WK), Dose: 0, 1.0, 2.0% OF DIET FOR 78 WK (STUDY DURATION: 94 WK), Tumor Site: Type of Lesion: LIVER: HEPATOCELLULAR CARCINOMA) “equivocal”; (Species: MOUSE, Strain/Sex: B6C3F1/MALE, Route: ORAL, Dose: 0, 1.0, 2.0% OF DIET FOR 78 WK (STUDY DURATION: 94 WK), Dose: 0, 1.0, 2.0% OF DIET FOR 78 WK (STUDY DURATION: 94 WK)) “inactive; negative”; (Species: RAT, Strain/Sex: F344/FEMALE, Route: ORAL, Dose: 0, 0.6, 1.2% OF DIET FOR 78 WK (STUDY DURATION: 109 WK), Dose: 0, 0.6, 1.2% OF DIET FOR 78 WK (STUDY DURATION: 109 WK)) “inactive; negative”; (Species: RAT, Strain/Sex: F344/MALE, Route: ORAL, Dose: 0, 0.6, 1.2% OF DIET OR 78 WK (STUDY DURATION: 109 WK), Dose: 0, 0.6, 1.2% OF DIET OR 78 WK (STUDY DURATION: 109 WK)) “inactive; negative”.
On to `C=C(C)[C@H]1CC=C(C)C(=O)C1`, for which the carcinogen call was “inactive; negative” (Species: MOUSE, Strain/Sex: B6C3F1/FEMALE, Route: GAVAGE, Dose: 0, 375, 750 MG/KG IN CORN OIL 5 D/WK FOR 103 WK (STUDY DURATION: 104 WK), Dose: 0, 375, 750 MG/KG IN CORN OIL 5 D/WK FOR 103 WK (STUDY DURATION: 104 WK)) and “inactive; negative” (Species: MOUSE, Strain/Sex: B6C3F1/MALE, Route: GAVAGE, Dose: 0, 375, 750 MG/KG IN CORN OIL 5 D/WK FOR 103 WK (STUDY DURATION: 104 WK), Dose: 0, 375, 750 MG/KG IN CORN OIL 5 D/WK FOR 103 WK (STUDY DURATION: 104 WK), Tumor Site: Type of Lesion: KIDNEY: TUBULAR CELL ADENOCARCINOMA).
`O=c1cc[nH]c(=S)[nH]1`: the carcinogen call is “active; positive” (Species: MOUSE, Route: ORAL, Tumor Site: Type of Lesion: LIVER) and “active; positive” (Species: RAT, Route: ORAL, Tumor Site: Type of Lesion: THYROID GLAND).

The values are drawn from PubChem BioAssay AID1259411 (Chemical Carcinogenesis Research Information System (CCRIS), 2018).
